The record followed here is PubChem BioAssay (NCI).

Experiment in all cases: NCI-60 cell line screen, 48 h
Test [1] has as its system SK-MEL-2 melanoma.
For test [2], the system named is RPMI-8226 leukemia.
Test [3] relates to SF-295 CNS.
In test [4] the test system is OVCAR-5 ovarian.
In test [5] the test system is HOP-92 NSCLC.
For test [6], the system named is CAKI-1 renal.
Test [7] concerns SNB-75 CNS.
Test [8] deals with MCF7 breast.
Test [9] deals with MDA-MB-435.
Test [10] deals with A549 NSCLC.
In test [11] the test system is RXF 393 renal.
Test [12] has as its system OVCAR-4 ovarian.
The subject of test [13] is MDA-N.
Test [14] deals with NCI-H226 lung.
In test [15] the test system is OVCAR-8 ovarian.
In test [16] the test system is SF-268 CNS.
Test [17] relates to SK-OV-3 ovarian.
The subject of test [18] is UO-31 renal.
Test [19] deals with SN12C renal.
Test [20] has as its system HL-60(TB) leukemia.

Structures are written as SMILES.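 Grown in 96-well plates, cells were treated for 48 hours with each compound at five concentrations. Insufficient inhibition: endpoint recorded as highest concentration tested. TGI denotes the concentration required for complete inhibition of growth.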

Turning to `CC1=Nc2nc3ccccc3n2C(C)(C)C1`, the TGI in test [1], in [2], in test [3], in [4], in test [5] and in test [6] was over 100 µM in each case. In addition, the TGI in test [7], in test [8], in [9], in test [10], in test [11] and in [12] was over 100 µM throughout. Besides, the TGI in [13], in test [14], in test [15], in test [16], in [17] and in test [18] was over 100 µM each time.

As for `CN(C)C1(C(=O)O)CC1`, the TGI in test [2], in test [3], in [4], in test [5], in [7] and in test [8] was over 100 µM throughout. Also, the TGI in test [19], in test [9], in test [10], in test [11], in test [12] and in test [13] was over 100 µM each time. For the same molecule, the TGI in [14], in test [15], in [20] and in test [16] was over 100 µM each time.

Turning to `COC(=O)C1=C(C(=O)OC)SC(=C2c3ccsc3-c3sccc32)S1`, the TGI in test [2] was over 100 µM; in test [3], 53.5 µM; in test [4], over 100 µM; in [6] it was over 100 µM; in test [7], 35.6 µM; in test [8], over 100 µM. Further, the TGI is over 100 µM in test [19]; over 100 µM in [9]; over 100 µM in test [10]; 41.6 µM in test [11]; over 100 µM in test [13]; over 100 µM in test [14]. The TGI in [15] is over 100 µM; in [20] it was 58.7 µM; in test [16], 57.3 µM; in test [17], 49.3 µM; in [18] it was over 100 µM.

On to `CCCCCCc1cc2cc(C(=O)Nc3ccccc3F)c(=N)oc2cc1O`, for which the TGI in test [1] was 26.8 µM; in [2], over 100 µM; in test [3] it was 33 µM; in test [4] it was 50.9 µM; in [6] it was 22.9 µM; in [8], 39.1 µM. The TGI in test [9] was found to be 10.2 µM; in test [10] it was 26.9 µM; in test [12], 22.4 µM; in test [13], 24 µM; in [15] it was 8.34 µM; in test [20], 31.9 µM. The TGI in test [16] was found to be 59.9 µM; in test [17], 29.3 µM; in test [18], 17.5 µM.

For `COC(=O)[C@@]12CC[C@]1(C(=O)OC)C1C(C)=CC(=O)O[C@@]12C` (stereo partly drawn), the TGI in [2], in test [3], in test [4], in test [5], in [7] and in test [8] was over 100 µM each time. Also, the TGI in [19], in [9], in test [10], in test [11], in [12] and in [13] was over 100 µM each time. The TGI in [14], in [15], in [20], in [16], in test [17] and in test [18] was over 100 µM throughout.

For `COc1cc(COC(=O)N2CCCCC2C(=O)O)c([N+](=O)[O-])cc1OC` (stereo not drawn), the TGI in test [2], in test [3], in test [4], in test [5], in test [7] and in test [8] was over 100 µM each time. Moreover, the TGI in test [19], in [9], in test [10], in [11], in test [13] and in test [14] was over 100 µM throughout. Moreover, the TGI in test [15], in [20], in [16], in [17] and in test [18] was over 100 µM throughout.

For the molecule `CN(C)C(=S)N/N=C\C(=N/NC(=S)N(C)C)c1ccccc1`, the TGI in [1] is over 100 µM; in [2] it was over 100 µM; in test [3], over 100 µM; in test [4] it was over 100 µM; in test [5], 92.1 µM; in [6], over 100 µM. The TGI is over 53.7 µM in [7]; over 38.8 µM in [8]; over 100 µM in test [19]; over 100 µM in test [9]; over 100 µM in test [10]; over 27.8 µM in test [11]. In addition, the TGI was over 100 µM in [12]; over 100 µM in test [13]; over 30.6 µM in test [14]; over 100 µM in [15]; over 72.3 µM in test [16]; over 100 µM in [17]. Further, the TGI in test [18] was over 100 µM.

Take `C=CC1(c2ccc3ccccc3c2)OCC(CC)(CC)CO1`: the TGI in test [1] came to 34.7 µM; in test [2] it was 80.4 µM; in [3], 65.2 µM; in [4] it was 38.5 µM; in [5], 52 µM; in test [7] it was 96.1 µM. Besides, the TGI in test [8] was 56.2 µM; in test [19], 44.5 µM; in [9] it was 65.7 µM; in [10], over 100 µM; in test [11], 36.2 µM; in test [12], over 100 µM. The TGI in test [13] was 65.8 µM; in test [14], 33.4 µM; in test [15], over 100 µM; in [20] it was 41.4 µM; in test [16], 95.6 µM; in test [17], over 100 µM. Also, the TGI in test [18] is 86.1 µM.

Consider `Cn1c(=O)nc2n(CCO)ccnc-2c1=O`, for which the TGI in test [1], in test [2], in [3], in test [4], in [5] and in test [6] was over 100 µM in each case. In addition, the TGI in test [7], in [8], in test [19], in [9], in test [10] and in test [11] was over 100 µM throughout. Moreover, the TGI in test [12], in test [13], in [14], in [15], in test [16] and in test [18] was over 100 µM in each case.

Turning to `CCCCOP(=O)(OCCCC)/C(C#N)=C/c1ccc(C)o1`, the TGI was 77.3 µM in test [1]; over 100 µM in [2]; over 100 µM in test [3]; over 100 µM in [4]; 79.6 µM in test [5]; over 100 µM in test [6]. Also, the TGI is over 100 µM in test [7]; over 100 µM in test [8]; over 100 µM in test [19]; 95.9 µM in test [9]; over 100 µM in [10]; 86.1 µM in test [11]. The TGI was over 100 µM in test [12]; 95.5 µM in test [13]; 78.8 µM in test [14]; over 100 µM in test [15]; over 100 µM in test [16]; over 100 µM in test [17].

As to `CCOC(=O)N1CC2(C(=O)OC)C=CC1C(C(=O)OC)C2` (stereo not drawn), the TGI in test [1], in [2], in test [3], in [4], in test [6] and in test [7] was over 100 µM each time. Moreover, the TGI in [8], in [19], in test [9], in test [10], in [11] and in test [12] was over 100 µM each time. Moreover, the TGI in test [13], in test [14], in test [15], in test [20], in test [16] and in test [17] was over 100 µM throughout. In test [18], this molecule had a TGI of over 100 µM.

As for `O=C(Cn1c(C(=O)/C=C/c2ccco2)nc2ccccc21)c1ccc(Cl)cc1`, the TGI in [1] was 27.8 µM; in test [2], 32.9 µM; in test [4] it was over 100 µM; in test [5], over 100 µM; in test [7] it was over 100 µM; in [8], 76.4 µM. In addition, the TGI in test [19] is 61.5 µM; in test [9] it was 32.7 µM; in test [10], over 100 µM; in [11] it was over 100 µM; in test [12], 65 µM; in [13], 50.2 µM. For the same molecule, the TGI in test [14] is over 100 µM; in [20], 41 µM; in test [16] it was 58.6 µM; in test [17], over 100 µM; in test [18], 94.3 µM.

With `Cn1c(=O)oc2cc(C(=S)N3CCC(Cc4ccccc4)CC3)ccc21`, the TGI in test [1], in test [2], in test [3], in test [4], in [6] and in [7] was over 100 µM each time. The TGI in test [8], in test [19], in test [9], in [11], in test [13] and in [14] was over 100 µM in each case. The TGI in [15], in test [20], in test [16] and in [17] was over 100 µM each time.

For `CC(=O)c1c2c(cc3c1CC1(Cc4cc5c(cc4C1=O)CCC5)C3)CCC2` (stereo not drawn), the TGI in [1] is over 100 µM; in [2], over 92.9 µM; in test [3], over 100 µM; in test [4], over 100 µM; in test [6], over 100 µM; in [7], over 100 µM. The TGI in test [8], in test [19], in test [9], in [10], in [12] and in test [13] was over 100 µM throughout. The TGI is over 100 µM in test [14]; over 100 µM in test [15]; over 59.4 µM in test [20]; over 100 µM in test [16]; over 100 µM in test [17]; over 100 µM in test [18].

Consider `SC[C@@H]1COC[C@H](CS)S1`, for which the TGI in test [3], in test [4], in test [7], in [8], in [19] and in [9] was over 100 µM in each case. The TGI in test [10], in test [12], in test [13], in [15], in test [20] and in test [16] was over 100 µM throughout. Also, the TGI in test [17] and in test [18] was over 100 µM throughout.

In the case of `Oc1ccc(-c2c3ccccc3c(-c3ccc(OCCBr)cc3)c3ccccc23)cc1`, the TGI in [1] was 63.5 µM; in test [2] it was 63.5 µM; in test [3] it was 32.7 µM; in test [4], over 100 µM; in [6], 67.1 µM; in [7], 60.9 µM. Also, the TGI in test [8] worked out at 32 µM; in [19] it was 59.9 µM; in test [9], 42 µM; in [10], 69.1 µM; in [11] it was 64.3 µM; in test [12], 58.3 µM. Besides, the TGI in test [13] is 59.8 µM; in test [14], 54.5 µM; in test [15], 64 µM; in [20], 70.1 µM; in [16] it was over 100 µM; in test [17] it was over 100 µM. In [18], this molecule yielded a TGI of over 100 µM.
